Results reported in patent US20220177818A1, “OPERATION PROCESS FOR A CELL CULTIVATION SYSTEM” (THE AUTOMATION PARTNERSHIP (CAMBRIDGE ) LTD., priority 2019, published 2022).

Test system: fucosyltransferase
Test: Feedback experiment: glycan profile of the monoclonal antibody from parallel CHO-bioreactor cultivations after feeding the inhibitor
Type: cell-based
Settings: Day 12 (end of cultivation), inhibitor in feed once per day from day 4; average of all 3 cultivations; relative to total measured glycans
Source text: In said experiment, parallel CHO-bioreactor cultivations producing a monoclonal antibody were started.
Values are in relative to the total amount of measured glycans. The different glycan profile abbreviations are explained in FIG. 7B. […] A decision was taken to reduce the fucosylated species, for example in order to increase ADCC potency (see e.g. Peipp et al 2008).
For this reason, the feeding strategy was adapted to contain an inhibitor of fucosyltransferase (2F-Peracetly-Fucose) in the feed (73). The feed was administered once per day throughout the experiment. Process samples were taken at the end of cultivation (day 12) and analyzed to check for the effect of the altered feeding strategy and compared to data from standard cultivations (74).

## CC(=O)OC1O[C@@H](C)[C@@H](OC(C)=O)[C@@H](OC(C)=O)[C@@H]1F (stereo partly drawn) [2F-Peracetly-Fucose, 2F-Peracetyl-Fucose]
  percentage distribution of analyzed glycans: FA2: 7,3%
  percentage distribution of analyzed glycans: FA2G1: 2,6%
  percentage distribution of analyzed glycans: FA2G2: 0,26%
